Test results: PubChem BioAssay AID220 (DTP/NCI, 2004)
Where “and” joins values, the source holds several entries; their conditions need not be identical. Identical values can stand only once. Results filed as inconclusive are left out. Starred links: 1 amine or outer side, 2 acyl side, 3 side chain; linkers in the order of their positions; H or OH if unused. Positions of bridges follow the written chain, without caps; N, C: chain ends. Non-standard residues stand in square brackets, D forms with d. Residues, ends and D or L forms follow the SMILES beside them. Chains are numbered I, II in the order given. Actinocin(9to1) = Cc1c2oc3c(C)ccc(C(=O)[*:1])c3nc-2c(C(=O)[*:2])c(N)c1=O; NMeV = CN[CH](C(=O)O)C(C)C; Sar = CNCC(=O)O

System: CD8F1 mice, subcutaneous mammary adenocarcinoma, T/C%
Assay: NCI In Vivo Anticancer Drug Screen. Data for tumor model Mammary Adenocarcinoma CD8F1 (subcutaneous) in CD8F1
Conditions: higher = larger tumour
Outline: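 Tumor-bearing mice, transplantable model; readout survival or tumor size; value = treated (T) / vehicle control (C).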

[1] = endpoint: median tumor weight change, dose: 62.5 mg/kg/injection, schedule: Q01DX001 (ip), vehicle: saline with Tween-80
[2] = endpoint: median tumor weight change, dose: 125.0 mg/kg/injection, schedule: Q01DX001 (ip), vehicle: saline with Tween-80
[3] = endpoint: median tumor weight change, dose: 500.0 mg/kg/injection, schedule: Q01DX001 (ip), vehicle: saline with Tween-80
[4] = endpoint: median tumor weight (est.), dose: 25.0 mg/kg/injection, schedule: Q07DX005 (ip), vehicle: saline with Tween-80
[5] = endpoint: median tumor weight (est.), dose: 200.0 mg/kg/injection, schedule: Q07DX005 (ip), vehicle: saline with Tween-80
[6] = endpoint: median tumor weight change, dose: 31.25 mg/kg/injection, schedule: Q01DX001 (ip), vehicle: distilled water + Tween-80

CN(CCN(C)C(=O)CCOS(C)(=O)=O)C(=O)CCOS(C)(=O)=O
T/C (endpoint: median tumor weight change, dose: 62.0 mg/kg/injection, schedule: Q01DX001 (ip), vehicle: saline): 67 % of control | T/C [1]: 43 % of control | T/C (endpoint: median tumor weight change, dose: 62.5 mg/kg/injection, schedule: Q01DX001 (ip), vehicle: suspension in saline): 39 % of control | T/C [2]: 15 % of control | T/C (endpoint: median tumor weight change, dose: 125.0 mg/kg/injection, schedule: Q01DX001 (ip), vehicle: saline): 3 % of control | T/C (endpoint: median tumor weight change, dose: 125.0 mg/kg/injection, schedule: Q01DX001 (ip), vehicle: suspension in saline): 10 % of control | T/C (endpoint: median tumor weight change, dose: 250.0 mg/kg/injection, schedule: Q01DX001 (ip), vehicle: saline): 51 % of control | T/C [3]: -17 % of control

CS(=O)(=O)OCCN(CCOS(C)(=O)=O)c1ccc(C=O)cc1
T/C (endpoint: median tumor weight (est.), dose: 6.25 mg/kg/injection, schedule: Q07DX005 (ip), vehicle: saline with Tween-80): 62 % of control | T/C (endpoint: median tumor weight (est.), dose: 12.5 mg/kg/injection, schedule: Q07DX005 (ip), vehicle: saline with Tween-80): 62 % of control and 83 % of control | T/C [4]: 35 % of control | T/C [5]: 85 % of control

CC(=O)OC1(C)CC(C)C(=O)C(C(O)CC2CC(=O)NC(=O)C2)C1 (centres undefined)
T/C (endpoint: median tumor weight (est.), dose: 94.0 micrograms/kg/injection, schedule: Q07DX005 (ip), vehicle: saline): 57 % of control | T/C (endpoint: median tumor weight (est.), dose: 188.0 micrograms/kg/injection, schedule: Q07DX005 (ip), vehicle: saline): 34 % of control | T/C (endpoint: median tumor weight (est.), dose: 375.0 micrograms/kg/injection, schedule: Q07DX005 (ip), vehicle: saline): 37 % of control | T/C (endpoint: median tumor weight (est.), dose: 750.0 micrograms/kg/injection, schedule: Q07DX005 (ip), vehicle: saline): 32 % of control

COC(=O)[C@@]12OC[C@]34[C@H]([C@@H](O)[C@@H]1O)[C@@]1(C)CC(=O)C(O)=C(C)[C@@H]1C[C@H]3OC(=O)[C@H](OC(=O)/C=C(\C)C(C)C)[C@@H]24
T/C (endpoint: median tumor weight (est.), dose: 0.25 mg/kg/injection, schedule: Q07DX005 (ip), vehicle: saline + alcohol): 99 % of control | T/C (endpoint: median tumor weight (est.), dose: 0.5 mg/kg/injection, schedule: Q07DX005 (ip), vehicle: saline + alcohol): 92 % of control | T/C (endpoint: median tumor weight (est.), dose: 1.0 mg/kg/injection, schedule: Q07DX005 (ip), vehicle: saline + alcohol): 104 % of control | T/C (endpoint: median tumor weight change, dose: 1.0 mg/kg/injection, schedule: Q01DX001 (ip), vehicle: saline + alcohol): 85 % of control | T/C (endpoint: median tumor weight change, dose: 2.0 mg/kg/injection, schedule: Q01DX001 (ip), vehicle: saline + alcohol): 81 % of control | T/C (endpoint: median tumor weight change, dose: 4.0 mg/kg/injection, schedule: Q01DX001 (ip), vehicle: saline + alcohol): 93 % of control

C[CH2][Ge]([CH2]C)[CH2]C.C[CH2][Ge]([CH2]C)[CH2]C.C[CH2][Ge]([CH2]C)[O][Ge]([CH2]C)[CH2]C
T/C [2]: 81 % of control | T/C [3]: 114 % of control

COc1ccc2c(c1)CCn1c(C)c(COC(=O)NC(C)C)c(COC(=O)NC(C)C)c1-2
T/C (endpoint: median tumor weight change, dose: 15.62 mg/kg/injection, schedule: Q01DX001 (ip), vehicle: distilled water + Tween-80): 107 % of control | T/C (endpoint: median tumor weight change, dose: 31.0 mg/kg/injection, schedule: Q01DX001 (ip), vehicle: distilled water + Tween-80): 106 % of control | T/C [6]: 109 % of control and 114 % of control | T/C (endpoint: median tumor weight change, dose: 62.0 mg/kg/injection, schedule: Q01DX001 (ip), vehicle: distilled water + Tween-80): 58 % of control | T/C (endpoint: median tumor weight change, dose: 250.0 mg/kg/injection, schedule: Q01DX001 (ip), vehicle: distilled water + Tween-80): 26 % of control

Cc1c2oc3c(C)ccc(C(=O)NC4C(=O)NC(C(C)C)C(=O)N5CCCC5C(=O)N(C)CC(=O)N(C)C(C(C)C)C(=O)OC4C)c3nc-2c(C(=O)NC2C(=O)NC(C(C)C)C(=O)N3CCCC3C(=O)N(C)CC(=O)N(C)C(C(C)C)C(=O)OC2C)c(N)c1=O (centres undefined) (I: TVP[Sar][NMeV] / II: TVP[Sar][NMeV]; ester I:1-I:C, II:1-II:C; linker I:N-II:N via Actinocin(9to1); configuration not given here)
T/C (endpoint: median tumor weight (est.), dose: 0.5 mg/kg/injection, schedule: Q07DX005 (ip), vehicle: saline): 26 % of control and 30 % of control | T/C (endpoint: median tumor weight (est.), dose: 1.0 mg/kg/injection, schedule: Q07DX005 (ip), vehicle: saline): 3 % of control and 20 % of control

CC1c2ccccc2CC(CCN(C)C)c2ccccc21 (centres undefined)
T/C (endpoint: median tumor weight change, dose: 1.95 mg/kg/injection, schedule: Q01DX001 (ip), vehicle: saline with Tween-80): 76 % of control | T/C (endpoint: median tumor weight change, dose: 3.9 mg/kg/injection, schedule: Q01DX001 (ip), vehicle: saline with Tween-80): 71 % of control | T/C (endpoint: median tumor weight change, dose: 7.8 mg/kg/injection, schedule: Q01DX001 (ip), vehicle: saline with Tween-80): 87 % of control | T/C (endpoint: median tumor weight change, dose: 15.62 mg/kg/injection, schedule: Q01DX001 (ip), vehicle: saline with Tween-80): 73 % of control

COC(=O)C(N)Cc1ccc(O)c(O)c1 (centres undefined)
T/C (endpoint: median tumor weight (est.), dose: 100.0 mg/kg/injection, schedule: Q07DX005 (ip), vehicle: saline): 195 % of control | T/C (endpoint: median tumor weight (est.), dose: 400.0 mg/kg/injection, schedule: Q07DX005 (ip), vehicle: saline): 112 % of control | T/C (endpoint: median tumor weight (est.), dose: 800.0 mg/kg/injection, schedule: Q07DX005 (ip), vehicle: saline): 108 % of control

CC(=O)Nc1ccc(O)c(O)c1
T/C [4]: 107 % of control | T/C (endpoint: median tumor weight (est.), dose: 50.0 mg/kg/injection, schedule: Q07DX005 (ip), vehicle: saline with Tween-80): 81 % of control | T/C (endpoint: median tumor weight (est.), dose: 100.0 mg/kg/injection, schedule: Q07DX005 (ip), vehicle: saline with Tween-80): 79 % of control | T/C [5]: 76 % of control | T/C (endpoint: median tumor weight (est.), dose: 400.0 mg/kg/injection, schedule: Q07DX005 (ip), vehicle: saline with Tween-80): 114 % of control | T/C (endpoint: median tumor weight (est.), dose: 800.0 mg/kg/injection, schedule: Q07DX005 (ip), vehicle: saline with Tween-80): 159 % of control

CCOC(=O)c1ccc(NN=NCCF)cc1
T/C (endpoint: median tumor weight change, dose: 15.6 mg/kg/injection, schedule: Q01DX001 (ip), vehicle: distilled water + Tween-80): 80 % of control | T/C [6]: 65 % of control | T/C (endpoint: median tumor weight change, dose: 62.5 mg/kg/injection, schedule: Q01DX001 (ip), vehicle: distilled water + Tween-80): 114 % of control | T/C (endpoint: median tumor weight change, dose: 125.0 mg/kg/injection, schedule: Q01DX001 (ip), vehicle: distilled water + Tween-80): 56 % of control

COc1cccc2c1C(=O)c1c(O)c3c(c(O)c1C2=O)C[C@@](O)(C(C)=O)C[C@@H]3OC1CC(N)C(O)C(C)O1 (some centres undefined)
T/C (endpoint: median tumor weight (est.), dose: 0.5 mg/kg/injection, schedule: Q07DX005 (ip), vehicle: water): 41 % of control | T/C (endpoint: median tumor weight (est.), dose: 1.0 mg/kg/injection, schedule: Q07DX005 (ip), vehicle: water): 43 % of control | T/C (endpoint: median tumor weight (est.), dose: 1.2 mg/kg/injection, schedule: Q07DX005 (ip), vehicle: saline): 91 % of control | T/C (endpoint: median tumor weight (est.), dose: 1.78 mg/kg/injection, schedule: Q07DX005 (ip), vehicle: water): 43 % of control | T/C (endpoint: median tumor weight (est.), dose: 1.8 mg/kg/injection, schedule: Q07DX005 (ip), vehicle: saline): 72 % of control | T/C (endpoint: median tumor weight (est.), dose: 2.0 mg/kg/injection, schedule: Q07DX005 (ip), vehicle: water): 38 % of control | T/C (endpoint: median tumor weight (est.), dose: 2.67 mg/kg/injection, schedule: Q07DX005 (ip), vehicle: water): 20 % of control | T/C (endpoint: median tumor weight (est.), dose: 2.7 mg/kg/injection, schedule: Q07DX005 (ip), vehicle: saline): 61 % of control

O=c1ncccn1[C@@H]1O[C@H](CO)[C@H](O)C1O (some centres undefined)
T/C (endpoint: median tumor weight change, dose: 1000.0 mg/kg/injection, schedule: Q01DX001 (ip), vehicle: saline): 78 % of control and 89 % of control | T/C (endpoint: median tumor weight change, dose: 2000.0 mg/kg/injection, schedule: Q01DX001 (ip), vehicle: saline): 95 % of control and 103 % of control

C#CC[N+]12CN3CN(CN(C3)C1)C2
T/C (endpoint: mean tumor weight, dose: 12.5 mg/kg/injection, schedule: Q07DX007 (ip), vehicle: saline): 48 % of control | T/C (endpoint: mean tumor weight, dose: 25.0 mg/kg/injection, schedule: Q07DX007 (ip), vehicle: saline): 70 % of control | T/C (endpoint: mean tumor weight, dose: 50.0 mg/kg/injection, schedule: Q07DX007 (ip), vehicle: saline): 81 % of control | T/C (endpoint: mean tumor weight, dose: 100.0 mg/kg/injection, schedule: Q07DX007 (ip), vehicle: saline): 150 % of control | T/C (endpoint: mean tumor weight, dose: 200.0 mg/kg/injection, schedule: Q07DX007 (ip), vehicle: saline): 97 % of control

NC(=S)Nc1cccc2ccccc12
T/C (endpoint: median tumor weight change, dose: 31.25 mg/kg/injection, schedule: Q01DX001 (ip), vehicle: saline with Tween-80): 58 % of control | T/C [1]: 80 % of control

CC[C@H]1CN2CCc3cc(OC)c(OC)cc3[C@@H]2C[C@@H]1C[C@H]1NCCc2cc(O)c(OC)cc21
T/C (endpoint: median tumor weight (est.), dose: 2.0 mg/kg/injection, schedule: Q07DX005 (ip), vehicle: saline): 67 % of control | T/C (endpoint: median tumor weight (est.), dose: 4.0 mg/kg/injection, schedule: Q07DX005 (ip), vehicle: saline): 95 % of control | T/C (endpoint: median tumor weight (est.), dose: 8.0 mg/kg/injection, schedule: Q07DX005 (ip), vehicle: saline): 92 % of control | T/C (endpoint: median tumor weight (est.), dose: 16.0 mg/kg/injection, schedule: Q07DX005 (ip), vehicle: saline): 47 % of control
